The values below come from patent US7915448B2, “Substituted sulfonylaminoarylmethyl cyclopropanecarboxamide as VR1 receptor antagonists” (Pfizer Inc., priority 2005, dated 2011).

pIC50: −log10 of the molar value.

The target in one data set is T1, human VR1 receptors (Homo sapiens, UniProt Q8NER1).
T1 construct: host or cells: cells highly expressing human VR1; cell type not specified
As to the kind of experiment: Human VR1 antagonist assay (Ca2+ imaging). It counts as cell-based. The following applies: cells expressing human VR1, fura-2 Ca2+ imaging, FDSS 6000; capsaicin (300 nM) or acid (pH5.8) stimulation, table does not say which. From the text: Human VR1 Antagonist Assay
VR1 antagonistic activity can be determined by the Ca^2+ imaging assay using human VR1 highly expressing cells. The cells that highly express human VR1 receptors are obtainable from several different conventional methods. The one standard method is cloning from human Dorsal Root Ganglion (DRG) or kidney according to the methods such as described in the journal article; Nature, 389, pp 816-824, 1997. Alternatively VR1 receptors highly expressing human keratinocytes are also known and published in the journal article (Biochemical and Biophysical Research Communications, 291, pp 124-129, 2002). […] Further more, the method to up regulate human VR1 gene, which is usually a silent gene or don't produce detectable level of VR1 receptors, is also available to obtain propriety cells. Such genetic modification method was described in detail; Nat. Biotechnol., 19, pp 440-445, 2001.
The cells that express human VR1 receptors were maintained in culture flask at 37° C. in an environment containing 5% CO2 until use in the assay. The intracellular Ca^2+ imaging assay to determine VR1 antagonistic activities were done by following procedures.
The culture medium was removed from the flask and fura-2/AM fluorescent calcium indicator was added to the flask at a concentration of 5 μM in the medium. The flask was placed in CO2 incubator and incubated for 1 hour. Then the cells expressing the human VR1 receptors were detached from the flask follow by washing with phosphate buffer saline, PBS(−) and re-suspended in assay buffer. The 80 μl of aliquot of cell suspension (3.75×10^5 cells/ml) was added to the assay plate and the cells were spun down by centrifuge (950 rpm, 20° C., 3 minutes).
Capsaicin Stimulation Assay:
The capsaicin-induced changes in the intracellular calcium concentration were monitored using FDSS 6000 (Hamamatsu Photonics, Japan), a fluorometric imaging system. The cell suspension in Krebs-Ringer HEPES (KRH) buffer (115 mM NaCl, 5.4 mM KCl, 1 mM MgSO4, 1.8 mM CaCl2, 11 mM D-Glucose, 25 mM HEPES, 0.96 mM Na2HPO4, pH 7.3) were pre-incubated with varying concentrations of the test compounds or KRH buffer (buffer control) for 15 minutes at room temperature under the dark condition. Then capsaicin solution, which gives 300 nM in assay mixture, was automatically added to the assay plate by the FDSS 6000.
The Acid-induced changes in the intracellular calcium concentration were monitored using FDSS 6000 (Hamamatsu Photonics, Japan), a fluorometric imaging system. The cell suspension in resting buffer (HBSS supplemented with 10 mM HEPES, pH 7.4) were pre-incubated with varying concentrations of the test compounds or resting buffer (buffer control) for 15 minutes at room temperature under the dark condition. The cells were automatically added the stimulating solution (HBSS supplemented with MES, final assay buffer pH5.8) by the FDSS 6000.
Determination of Antagonist Activity
The monitoring of the changes in the fluorescence signals (λex=340 nm/380 nm, λem=510-520 nm) was initiated at 1 minute prior to the addition of capsaicin solution or acidic buffer and continued for 5 minute.

The nature of data set [1]: Half-life in Human Liver Microsomes (HLM). The settings on record: human, human liver microsomes (HL101), pH 7.4.
Experimental: Test compounds (1 μM) were incubated with 3.3 mM MgCl2 and 0.78 mg/mL HLM (HL101) in 100 mM potassium phosphate buffer (pH 7.4) at 37° C. on the 96-deep well plate. The reaction mixture was split into two groups, a non-P450 and a P450 group. NADPH was only added to the reaction mixture of the P450 group. An aliquot of samples of P450 group was collected at 0, 10, 30, and 60 min time point, where 0 min time point indicated the time when NADPH was added into the reaction mixture of P450 group. An aliquot of samples of non-P450 group was collected at −10 and 65 min time point. Collected aliquots were extracted with acetonitrile solution containing an internal standard. The precipitated protein was spun down in centrifuge (2000 rpm, 15 min). The compound concentration in supernatant was measured by LC/MS/MS system.
The half-life value was obtained by plotting the natural logarithm of the peak area ratio of compounds/internal standard versus time. The slope of the line of best fit through the points yields the rate of metabolism (k).

T1 sequence (Q8NER1 whole entry): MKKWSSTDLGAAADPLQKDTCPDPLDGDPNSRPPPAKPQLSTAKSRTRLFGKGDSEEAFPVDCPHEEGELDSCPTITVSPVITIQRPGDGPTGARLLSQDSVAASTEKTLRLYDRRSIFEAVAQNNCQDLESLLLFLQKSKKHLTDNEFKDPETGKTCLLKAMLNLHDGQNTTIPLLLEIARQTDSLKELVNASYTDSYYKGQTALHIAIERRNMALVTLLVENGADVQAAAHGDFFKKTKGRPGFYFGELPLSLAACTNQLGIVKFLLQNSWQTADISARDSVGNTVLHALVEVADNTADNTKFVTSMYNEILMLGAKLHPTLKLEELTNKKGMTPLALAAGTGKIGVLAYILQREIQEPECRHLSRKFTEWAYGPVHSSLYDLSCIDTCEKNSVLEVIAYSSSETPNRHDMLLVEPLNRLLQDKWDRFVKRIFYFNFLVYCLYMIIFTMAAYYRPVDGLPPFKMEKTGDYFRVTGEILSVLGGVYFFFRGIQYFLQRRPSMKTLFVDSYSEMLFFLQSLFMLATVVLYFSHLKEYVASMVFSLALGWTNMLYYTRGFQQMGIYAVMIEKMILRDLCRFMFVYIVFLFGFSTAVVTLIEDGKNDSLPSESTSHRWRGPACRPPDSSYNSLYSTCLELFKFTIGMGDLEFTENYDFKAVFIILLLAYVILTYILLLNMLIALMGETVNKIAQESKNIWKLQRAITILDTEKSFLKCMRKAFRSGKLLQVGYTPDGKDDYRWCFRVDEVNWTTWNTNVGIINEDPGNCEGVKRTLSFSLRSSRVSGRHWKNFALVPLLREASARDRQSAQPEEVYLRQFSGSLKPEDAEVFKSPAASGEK

Broadly, the pIC50 is the negative decadic logarithm of the IC50, by convention in mol/L. Lower therefore signals a high IC50. What is called half-life is how long it takes for the measured level to halve. For `Cc1cc([C@@H](C)NC(=O)C2CC2c2ccc(C(C)(C)C)nc2N2CCCC2)ccc1NS(C)(=O)=O` (stereo partly drawn) [Example 51, 2-(6-tert-Butyl-2-pyrrolidin-1-ylpyridin-3-yl)-N-((1R)-1-{3-methyl-4-[(methylsulfonyl)amino]phenyl}ethyl)cyclopropanecarboxamide], the negative logarithm of the IC50 (pIC50) at human VR1 receptors is 7.81. For the same compound, the half-life at 1 μM in data set [1] worked out at 5 min.

Consider `Cc1cc([C@@H](C)NC(=O)C2CC2(C)c2ccc(C(F)(F)F)c(F)c2)ccc1NS(C)(=O)=O` (stereo partly drawn) [Example 66, 2-[3-Fluoro-4-(trifluoromethyl)phenyl]-2-methyl-N-((1R)-1-{3-methyl-4-[(methylsulfonyl)amino]phenyl}ethyl)cyclopropanecarboxamide], for which the negative-log IC50 (pIC50) on human VR1 receptors is 9.38. The half-life at 1 μM in data set [1] worked out at 34 min.

For the compound `Cc1nc([C@@H](C)NC(=O)C2CC2(C)c2ccc(C(F)(F)F)cc2)ccc1NS(C)(=O)=O` (stereo partly shown) [Example 54], the pIC50 on human VR1 receptors is 6.63. The same compound displayed a half-life at 1 μM in data set [1] of 96 min.

Regarding `CC[C@@H](NC(=O)[C@H]1C[C@]1(C)c1ccc(C(F)(F)F)cc1)c1ccc(NS(C)(=O)=O)c(C)c1` [Example 34, (1S,2S)-2-Methyl-N-((1R)-1-{3-methyl-4-[(methylsulfonyl)amino]phenyl}propyl)-2-[4-(trifluoromethyl)phenyl]cyclopropanecarboxamide], the negative logarithm of the IC50 (pIC50) against human VR1 receptors is 8.33. This compound also came in with a half-life at 1 μM in data set [1] of over 120 min.

`C[C@@H](NC(=O)C1CC1(C)c1ccc(C(F)(F)F)c(F)c1)c1ccc(NS(C)(=O)=O)c(F)c1` (stereo partly drawn) [Example 67, N-((1R)-1-{3-Fluoro-4-[(methylsulfonyl)amino]phenyl}ethyl)-2-[3-fluoro-4-(trifluoromethyl)phenyl]-2-methylcyclopropanecarboxamide]: on human VR1 receptors, the negative logarithm of the IC50 (pIC50) was 8.25. For the same compound, the half-life at 1 μM in data set [1] was 95 min.

As to `Cc1cc([C@@H](C)NC(=O)C2CC2c2ccc(C(C)(C)C)nc2N2CCCCC2)ccc1NS(C)(=O)=O` (stereo partly drawn) [Example 49, 2-(6-tert-Butyl-2-piperidin-1-ylpyridin-3-yl)-N-((1R)-1-{3-methyl-4-[(methylsulfonyl)amino]phenyl}ethyl)cyclopropanecarboxamide], the pIC50 against human VR1 receptors is 6.90. Besides, the half-life at 1 μM in data set [1] is 3 min.

On human VR1 receptors, `C[C@@H](NC(=O)C1CC1c1ccc(C(F)(F)F)cc1)c1ccc(NS(C)(=O)=O)c(CO)c1` (stereo partly drawn) [Example 20, N-((1R)-1-{3-(Hydroxymethyl)-4-[(methylsulfonyl)amino]phenyl}ethyl)-2-[4-(trifluoromethyl)phenyl]cyclopropanecarboxamide] showed a negative-log IC50 (pIC50) of 7.33. This compound registered a half-life at 1 μM in data set [1] of over 120 min.

`C[C@@H](NC(=O)C1CC1(C)c1ccc(SC(F)(F)F)cc1)c1ccc(NS(C)(=O)=O)c(CO)c1` (stereo partly shown) [Example 25]: the negative logarithm of the IC50 (pIC50) against human VR1 receptors was 7.58. Besides, the half-life at 1 μM in data set [1] was 30 min.

On to `C[C@@H](NC(=O)[C@H]1C[C@]1(C)c1ccc(C(F)(F)F)cc1)c1ccc(NS(C)(=O)=O)cc1` [Example 21, (1S,2S)-2-Methyl-N-((1R)-1-{4-[(methylsulfonyl)amino]phenyl}ethyl)-2-[4-(trifluoromethyl)phenyl]cyclopropanecarboxamide], for which the pIC50 on human VR1 receptors is 7.70. This compound also gave a half-life at 1 μM in data set [1] of over 120 min.

For `Cc1cc([C@@H](C)NC(=O)[C@H]2C[C@]2(C)c2ccc(C(F)(F)F)nc2N2CCOCC2)ccc1NS(C)(=O)=O` [Example 84, 2-Methyl-N-((1R)-1-{3-methyl-4-[(methylsulfonyl)amino]phenyl}ethyl)-2-[2-morpholin-4-yl-6-(trifluoromethyl)pyridin-3-yl]cyclopropanecarboxamide], the negative-log IC50 (pIC50) against human VR1 receptors is 7.61. The same compound came in with a half-life at 1 μM in data set [1] of 3 min.

Regarding `C[C@@H](NC(=O)[C@H]1C[C@@H]1c1ccc(C(C)(C)C(F)(F)F)cc1)c1ccc(NS(C)(=O)=O)c(CO)c1` [Example 48, N-((1R)-1-{3-(Hydroxymethyl)-4-[(methylsulfonyl)amino]phenyl}ethyl)-2-[4-(2,2,2-trifluoro-1,1-dimethylethyl)phenyl]cyclopropanecarboxamide], the negative logarithm of the IC50 (pIC50) at human VR1 receptors is 6.69. Further, the half-life at 1 μM in data set [1] is 21 min.

Take `Cc1cc([C@@H](C)NC(=O)C2CC2(C)c2ccc(OC(F)(F)F)cc2)ccc1NS(C)(=O)=O` (single isomer, unassigned) [Example 28]: the negative logarithm of the IC50 (pIC50) at human VR1 receptors is 7.91. For the same compound, the half-life at 1 μM in data set [1] amounted to 61 min.

In the case of `CCc1cc([C@@H](C)NC(=O)C2CC2(C)c2ccc(OC(F)(F)F)cc2)ccc1NS(C)(=O)=O` (single isomer, unassigned) [Example 75], the pIC50 against human VR1 receptors is 7.93. For the same compound, in data set [1], the half-life at 1 μM worked out at 10 min.

As to `C[C@@H](NC(=O)[C@H]1C[C@@H]1c1cc(F)c(C(C)(C)C)c(F)c1)c1ccc(NS(C)(=O)=O)cc1` [Example 38, 2-[4-tert-Butyl-3,5-difluorophenyl]-N-((1R)-1-{4-[(methylsulfonyl)amino]phenyl}ethyl)cyclopropanecarboxamide], the negative-log IC50 (pIC50) at human VR1 receptors was 7.15. In addition, the half-life at 1 μM in data set [1] was 40 min.

As to `Cc1cc([C@@H](C)NC(=O)C2CC2(C)c2ccc(SC(F)(F)F)cc2)ccc1NS(C)(=O)=O` (stereo partly drawn) [Example 24, 2-Methyl-N-((1R)-1-{3-methyl-4-[(methylsulfonyl)amino]phenyl}ethyl)-2-{4-[(trifluoromethyl)thio]phenyl}cyclopropanecarboxamide], the negative logarithm of the IC50 (pIC50) at human VR1 receptors is 7.71. The compound also showed a half-life at 1 μM in data set [1] of 23 min.

For the compound `Cc1nc([C@@H](C)NC(=O)C2CC2c2ccc(C(C)(C)C)cc2)ccc1NS(C)(=O)=O` (single isomer, unassigned) [Example 55], the negative-log IC50 (pIC50) against human VR1 receptors was 6.53. The same compound showed a half-life at 1 μM in data set [1] of 42 min.

On to `C[C@@H](NC(=O)[C@H]1C[C@@H]1c1ccc(C(F)(F)F)nc1N1CCCC1)c1ccc(NS(C)(=O)=O)c(CO)c1` [Example 47, N-((1R)-1-{3-(Hydroxymethyl)-4-[(methylsulfonyl)amino]phenyl}ethyl)-2-[2-pyrrolidin-1-yl-6-(trifluoromethyl)pyridin-3-yl]cyclopropanecarboxamide], for which the pIC50 on human VR1 receptors was 8.12. This compound had a half-life at 1 μM in data set [1] of 11 min.

Compound `Cc1cc([C@@H](C)NC(=O)C2CC2c2ccc(C(F)(F)F)cc2)ccc1NS(C)(=O)=O` (stereo partly drawn) [Example 19a, N-((1R)-1-{3-Methyl-4-[(methylsulfonyl)amino]phenyl}ethyl)-2-[4-(trifluoromethyl)phenyl]cyclopropanecarboxamide] gave a pIC50 on human VR1 receptors of 7.64. Also, in data set [1], the half-life at 1 μM was over 120 min.

`Cc1cc([C@@H](C)NC(=O)C2CC2c2ccc(C(C)(C)C)cc2CO)ccc1NS(C)(=O)=O` (stereo partly drawn) [Example 68, 2-[4-tert-Butyl-2-(hydroxymethyl)phenyl]-N-((1R)-1-{3-methyl-4-[(methylsulfonyl)amino]phenyl}ethyl)cyclopropanecarboxamide] gave a pIC50 against human VR1 receptors of 7.21. In data set [1], this compound showed a half-life at 1 μM of 18 min.

On human VR1 receptors, `Cc1cc([C@@H](C)NC(=O)[C@H]2C[C@]2(C)c2ccc(C(F)(F)F)cc2)ccc1NS(C)(=O)=O` [Example 15, (1S,2S)-2-Methyl-N-((1R)-1-{3-methyl-4-[(methylsulfonyl)amino]phenyl}ethyl)-2-[4-(trifluoromethyl)phenyl]cyclopropanecarboxamide] showed a pIC50 of 9.15. The same compound displayed a half-life at 1 μM in data set [1] of 38 min.
